Measurements reported in paper PMC8566951, “Antifungal Activity of ToAP2D Peptide Against Sporothrix globosa” (Frontiers in Bioengineering and Biotechnology, 2021).
No end group written: not given here.

How the values were obtained:
S. globosa [1] = assay: S. globosa footpad infection in mice, skin lesion area; type: in vivo, BALB/c mice; details: itraconazole gavage 60 mg/kg daily from Day 10, mean ± SD, n = 6
Description: The animal protocol was approved by the Institutional Ethics Committee for Animal Use in Research, and our animal care followed Animal Care guidelines of the Jilin University. Mice were randomly divided into study group (n = 51) and the healthy control (HC) group (n = 6). Mice in the study group were injected with 0.05 ml S. globosa suspension (1 × 10^8 cfu/ml) on their footpads after alcohol cotton ball sterilization. The condition of the skin was monitored daily. […] After that, CO2 lattice laser was used to promote ToAP2D absorption, and the mice of the study group were further divided into infection group (n = 12), laser group (n = 12), laser + ToAP2D group (n = 12), and itraconazole group (n = 12), and the antifungal treatments were given subsequently.
In the laser group, the injection feet were subjected to CO2 lattice laser 10,600 nm irradiation at room temperature with an irradiation energy density of 120 mJ/mm^2. The laser scanning area was 15 mm × 15 mm with a lattice density of 0.3 mm and 25.0% coverage rate. The laser treatment was administered every […] on Day 10, 14, 18, and 22. In the laser + ToAP2D group, mice were subjected to CO2 lattice laser irradiation with the same parameters in the laser group to assist the absorption of ToAP2D. Almost immediately after laser irradiation, the antibacterial peptide ToAP2D (4 mg/ml, diluted with 0.9% normal saline) was repeatedly rolled onto the laser-irradiated part of the footpad, until it was completely absorbed every day. In the itraconazole group, mice were gavaged with itraconazole at a dose of 60 mg/kg daily. The size of the footpads of mice was measured every 3 days and analyzed using Photoshop. On Day 18 and 26, six mice in each group were sacrificed, and their feet tissues were collected for further skin histology and immunohistochemistry studies.

S. globosa [2] = assay: Inhibition zone test (paper disk); type: cell-based, Sporothrix globosa; details: 6 µL on 5 mm paper disk, 37°C, 72 h, repeated three times, 5.00 = disk diameter
Description: S. globosa was collected from clinical patients diagnosed with cutaneous sporotrichosis at our hospital. All strains were identified as S. globosa using mycelial-to-yeast phase conversion culture and molecular identification methods. All isolates were grown on Sabouraud’s dextrose agar. After 7 days of culture, the fungal colonies were transferred to brainheart infusion broth and incubated in a rotary shaker (150 rpm/min) at 37°C for another 7 days. S. globosa was centrifuged and resuspended in PBS and diluted to 1.0 × 10^8 cfu/ml.
The antifungal activity of ToAP2A, ToAP2C, and ToAP2D against S. globosa was analyzed using the inhibition zone test. S. globosa was collected and diluted to 1.0 × 10^8 cfu/ml with a hemocytometer. We then evenly inoculated on brainheart infusion broth agar plates with 50 µL aliquots of the dilution. Paper disks with 5 mm diameter were pasted on the surface of the solid culture medium after high-pressure sterilization. ToAP2A, ToAP2C, and ToAP2D (4/2/1 mg/ml) and the control sample (physiological saline with a concentration of 0.9%) were dripped onto the filter paper with 6 µL, respectively, and cultured in 37°C for 72 h to observe whether there is a zone of inhibition. The diameter of the inhibition zone was measured and recorded with a vernier caliper. The above steps were repeated three times to calculate the average value and standard deviation of the inhibition zone diameter of each sample.

S. globosa [3] = assay: Minimal inhibitory concentration, microdilution assay; type: cell-based, Sporothrix globosa; details: brainheart infusion broth, 1 × 10^8 cfu/ml, 37°C, 7 days, at least three experiments
Description: The minimal inhibitory concentration (MIC) of ToAP2D against S. globosa was determined using the microdilution assay. In brief, twofold serial dilutions of ToAP2D were prepared in 96-well polystyrene microplates to a final volume of 100 µL. Final concentrations of ToAP2D ranged from 5 mg/ml to 0.62 μg/ml. In each plate, wells were included without peptide as control. Then, 100 µL of the liquid medium (brainheart infusion broth) was added to each well with a final concentration of 1 × 10^8 cfu/ml for S. globosa. The plates were incubated at 37°C for 7 days. In addition, 20 µL of culture from each well was inoculated on the brainheart solid medium and cultured in a constant temperature incubator at 37°C for 7 days to observe the growth of colonies. […] The experiments were performed at least three times on separate dates.

[4] = Serum stability by inhibition zone test; type: in vitro ADME; details: human serum diluted 1:1 with 0.9% normal saline, ToAP2D 4 mg/ml, 10 h at 37°C, read-out inhibition zone after 24 h
Description: The stability of ToAP2D in human serum was analyzed using the inhibition zone test. 5 ml of healthy human blood (from the physical examination center of our hospital) was extracted using a sterile syringe, stored at room temperature for 1 h, and then stored at 4°C overnight. After 24 h, the blood was centrifuged at 1,000 rpm/min for 10 min, and 50 µL of serum in the supernatant was gently sucked out with a pipette gun. The serum was diluted with 50 µL of 0.9% normal saline, and then, the antimicrobial peptide ToAP2D was dissolved in the diluted serum.
To determine the stability of ToAP2D in human serum, ToAP2D (final concentration 4 mg/ml) was mixed with the diluted serum for 0, 0.5, 1, 2, 4, 6, 8, and 10 h at 37°C, respectively. In brief, S. globosa was inoculated on brainheart infusion broth agar plates, 5.0 mm paper disks were placed on top, and 6 µL aliquots of the serumpeptide mixture were added to the paper disks at each incubation time point. After 24 h of incubation, the inhibitory zones against S. globosa were measured and recorded.

[5] = Acute toxicity, HE staining of major organs; type: in vivo; details: BALB/c mice, 60 mg/kg tail vein, organs after 24 h, n = 5
Description: To examine their toxicity, an in vivo animal study was performed. The 10 healthy BALB/c mice were randomly divided into ToAP2D group (n = 5) and the control group (n = 5). The mice in the ToAP2D group were injected with ToAP2D through the tail vein at a dose of 60 mg/kg, and the control group mice were injected with the same volume of normal saline. After 24 h, the major organs (e.g., brain, heart, liver, and kidney) of the mice were excised and fixed in 10% buffered formalin for 1 day. The tissues were then embedded in paraffin and sectioned for hematoxylin and eosin (HE) staining.

[6] = ref Guilhelmelli et al., 2016; cited from earlier work
Source text: (§1) As the biological characteristics of S. globosa are very similar to C. albicans, we then use ToAP2structure as a template, through reasonable molecular design and modification, to study the inhibitory e ...

Candida albicans = details: ref Guilhelmelli et al., 2016; cited from earlier work
Source text: as §1

Question: For `CCC(C)n1ncn(-c2ccc(N3CCN(c4ccc(OCC5COC(Cn6cncn6)(c6ccc(Cl)cc6Cl)O5)cc4)CC3)cc2)c1=O` (stereo not shown) [Itraconazole, itraconazole], which “Skin lesion area (mm^2)” value (S. globosa [1]; Day14) is on record?
Answer: 27.82 ± 2.84 ^** mm^2

Question: What about the “Skin lesion area (mm^2)” value (S. globosa [1]; Day18) of the same molecule?
Answer: 21.47 ± 0.92 ^*** mm^2

Question: And the “Skin lesion area (mm^2)” value (S. globosa [1]; Day22)?
Answer: 14.94 ± 2.93 ^** mm^2

Question: And the “Skin lesion area (mm^2)” value (S. globosa [1]; Day26)?
Answer: 11.81 ± 0.85 mm^2

Question: With GSKLIPGVMKLFSKK [ToAP2A] as the molecule, how does the “Inhibition zone (mm) mean ± standard deviation (SD)” value (S. globosa [2]; 1 mg/ml) read?
Answer: 5.00 ± 0.00 mm

Question: And the “Inhibition zone (mm) mean ± standard deviation (SD)” value (S. globosa [2]; 2 mg/ml)?
Answer: 6.59 ± 0.34 mm

Question: What about the “Inhibition zone (mm) mean ± standard deviation (SD)” value (S. globosa [2]; 4 mg/ml) of the same molecule?
Answer: 9.23 ± 0.34 mm

Question: For GDKLIPGVMKLFRKK [ToAP2D], which “Inhibition zone (mm) mean ± standard deviation (SD)” value (S. globosa [2]; 1 mg/ml) is on record?
Answer: 5.00 ± 0.00 mm

Question: And the “Inhibition zone (mm) mean ± standard deviation (SD)” value (S. globosa [2]; 2 mg/ml)?
Answer: 6.86 ± 0.25 mm

Question: And the “Inhibition zone (mm) mean ± standard deviation (SD)” value (S. globosa [2]; 4 mg/ml)?
Answer: 11.56 ± 0.36 mm

Question: And the “minimal inhibitory concentration (MIC)” value (S. globosa [3])?
Answer: 156.25 mg/L

Question: And the “antifungal activity against S. globosa after incubation in serum, compared to the original drug” value [4]?
Answer: > 90%

Question: What about the “acute toxicity (HE staining of main organs)” value [5] of the same molecule?
Answer: no acute toxicity

Question: Which results are given for FFGTLFKLGSKLIPGVMKLFSKKKER [ToAP2]?
Answer: cytotoxic activity [6]: low cytotoxic; hemolytic activity [6]: low hemolytic; growth of Candida albicans (Candida albicans): could inhibit the growth

Question: For GAKLIPGVMKLFRKK [ToAP2C], which “Inhibition zone (mm) mean ± standard deviation (SD)” value (S. globosa [2]; 1 mg/ml) is on record?
Answer: 5.00 ± 0.00 mm

Question: What about the “Inhibition zone (mm) mean ± standard deviation (SD)” value (S. globosa [2]; 2 mg/ml) of the same molecule?
Answer: 6.37 ± 0.27 mm

Question: What about the “Inhibition zone (mm) mean ± standard deviation (SD)” value (S. globosa [2]; 4 mg/ml) of the same molecule?
Answer: 8.12 ± 0.33 mm
